Species: Rattus norvegicus
Assay type: toxicity, organism-based, Sprague-Dawley
Details: in vivo, po, route oral GAVAGE, […]
[1] = 100 mg/kg, 24 h, tissue Blood, dose level M1, time 1 day
[2] = 100 mg/kg, 24 h, tissue Plasma, dose level M1, time 1 day
[3] = 860 mg/kg, 6 h, tissue Blood, dose level High, time 0.25 day
[4] = 860 mg/kg, 6 h, tissue Plasma, dose level High, time 0.25 day
[5] = 860 mg/kg, 24 h, tissue Blood, dose level High, time 1 day
[6] = 860 mg/kg, 24 h, tissue Plasma, dose level High, time 1 day

Description: DrugMatrix - Regimen: Single

CC(C)OC(=O)C(C)(C)Oc1ccc(C(=O)c2ccc(Cl)cc2)cc1 [FENOFIBRATE]
ABSOLUTE LYMPHOCYTE [1]: 12569.67 CELLS/uL
ABSOLUTE MONOCYTE [1]: 401.83 CELLS/uL
ABSOLUTE SEGMENTED NEUTROPHIL [1]: 920.33 CELLS/uL
BASOPHIL [1]: 0%
EOSINOPHIL [1]: 0.17%
ERYTHROCYTE COUNT [1]: 4.96 x10E6/uL
HEMATOCRIT [1]: 32.78%
HEMOGLOBIN [1]: 13.08 G/DL
LYMPHOCYTE [1]: 90.5%
MEAN CORPUSCULAR HEMOGLOBIN [1]: 26.38 pg
MEAN CORPUSCULAR HEMOGLOBIN CONCENTRATION [1]: 39.95 G/DL
MEAN CORPUSCULAR VOLUME [1]: 66.03 fL
NEUTROPHIL [1]: 6.67%
NUCLEATED RED BLOOD CELLS [1]: 0.33 /100WBC
ALANINE AMINOTRANSFERASE [2]: 74.83 u/L
ALBUMIN [2]: 4.45 G/DL
ALKALINE PHOSPHATASE [2]: 321.17 u/L
ASPARTATE AMINOTRANSFERASE [2]: 86.17 u/L
BLOOD UREA NITROGEN [2]: 13 mg/dL
CARBON DIOXIDE [2]: 30.83 mmol/L
CHOLESTEROL [2]: 42.83 mg/dL
CREATINE PHOSPHOKINASE [2]: 282.83 u/L
CREATININE [2]: 0.19 mg/dL
GLUCOSE [2]: 147.17 mg/dL
LIPASE [2]: 9.17 u/L
TOTAL BILIRUBIN [2]: 0.15 mg/dL
TOTAL PROTEIN [2]: 5.55 G/DL
ABSOLUTE EOSINOPHIL [3]: 0 CELLS/uL
ABSOLUTE LYMPHOCYTE [3]: 9866.33 CELLS/uL
ABSOLUTE MONOCYTE [3]: 201 CELLS/uL
ABSOLUTE SEGMENTED NEUTROPHIL [3]: 1482.67 CELLS/uL
BASOPHIL [3]: 0%
EOSINOPHIL [3]: 0%
ERYTHROCYTE COUNT [3]: 5.53 x10E6/uL
HEMATOCRIT [3]: 35.82%
HEMOGLOBIN [3]: 14.02 G/DL
LYMPHOCYTE [3]: 85%
MEAN CORPUSCULAR HEMOGLOBIN CONCENTRATION [3]: 39.15 G/DL
MEAN CORPUSCULAR VOLUME [3]: 64.97 fL
NEUTROPHIL [3]: 13.17%
NUCLEATED RED BLOOD CELLS [3]: 0 /100WBC
ALANINE AMINOTRANSFERASE [4]: 53.5 u/L
ALBUMIN [4]: 4.48 G/DL
ALKALINE PHOSPHATASE [4]: 282.5 u/L
ASPARTATE AMINOTRANSFERASE [4]: 93.33 u/L
BLOOD UREA NITROGEN [4]: 9 mg/dL
CARBON DIOXIDE [4]: 26 mmol/L
CHOLESTEROL [4]: 64 mg/dL
CREATINE PHOSPHOKINASE [4]: 406.33 u/L
CREATININE [4]: 0.16 mg/dL
LACTATE DEHYDROGENASE [4]: 198.83 u/L
TOTAL BILIRUBIN [4]: 0.2 mg/dL
TOTAL PROTEIN [4]: 6.02 G/DL
ABSOLUTE EOSINOPHIL [5]: 43 CELLS/uL
ABSOLUTE LYMPHOCYTE [5]: 12968.67 CELLS/uL
ABSOLUTE MONOCYTE [5]: 388.33 CELLS/uL
ABSOLUTE SEGMENTED NEUTROPHIL [5]: 1900 CELLS/uL
BASOPHIL [5]: 0%
EOSINOPHIL [5]: 0.33%
ERYTHROCYTE COUNT [5]: 5.77 x10E6/uL
HEMATOCRIT [5]: 35.63%
HEMOGLOBIN [5]: 14.08 G/DL
LYMPHOCYTE [5]: 85.17%
MEAN CORPUSCULAR HEMOGLOBIN CONCENTRATION [5]: 39.53 G/DL
MEAN CORPUSCULAR VOLUME [5]: 61.83 fL
NEUTROPHIL [5]: 12%
NUCLEATED RED BLOOD CELLS [5]: 0 /100WBC
ALANINE AMINOTRANSFERASE [6]: 115.33 u/L
ALBUMIN [6]: 4.42 G/DL
ALKALINE PHOSPHATASE [6]: 359 u/L
ASPARTATE AMINOTRANSFERASE [6]: 123.33 u/L
BLOOD UREA NITROGEN [6]: 10.33 mg/dL
CARBON DIOXIDE [6]: 27.83 mmol/L
CHOLESTEROL [6]: 51.5 mg/dL
CREATINE PHOSPHOKINASE [6]: 497 u/L
CREATININE [6]: 0.24 mg/dL
GLUCOSE [6]: 134.17 mg/dL
LACTATE DEHYDROGENASE [6]: 204.83 u/L
LIPASE [6]: 9 u/L
POTASSIUM [6]: 5.95 MEQ/L
TOTAL BILIRUBIN [6]: 0.22 mg/dL
TOTAL PROTEIN [6]: 5.72 G/DL

Source: ChEMBL document CHEMBL3885881, “DrugMatrix”
